Results on 17 compounds are retold here after patent publication US11142527B2, “Dihydropyrimidine compounds and uses thereof in medicine” (SUNSHINE LAKE PHARMA CO., LTD., priority 2017, dated 2021).

Bounds are passed on as bounds.

The nature of data set [1]: Cytotoxicity test with CellTiter Glo. The class given is cell-based. Conditions: human, HepG2.2.15 cells, highest concentration 150 μM, read-out: CC50 values of the compounds of the invention. In a few lines:
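HepG2.2.15 cells (3000/well) exposed to serially diluted compound, highest final concentration 150 μM, for 4 days at 37 °C. Viability read by CellTiter Glo, cytotoxicity % taken relative to DMSO controls, and CC50 obtained by four-parameter nonlinear regression.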
Background: Cellular ATP, detected with luciferase, serves as a proxy for viable cell number.

The subject of another data set is HBV. Description: Test of anti HBV activity in vitro (viral DNA by qPCR). Conditions: Hepatitis B virus; HepG2.2.15 cells, viral DNA in cell culture supernatant by qPCR; read-out: EC50 values of the compound of the invention on viral replication. Format: cell-based. The essentials:
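HepG2.2.15 cells (integrated HBV genome) were grown to confluence, then treated with compound in 4-fold dilutions from 4 μM final (0.5% DMSO). Secreted viral DNA in supernatant was quantified by SYBR qPCR against an HBV plasmid standard curve; EC50 from four-parameter nonlinear regression of concentration versus copy number.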
(Real-time PCR tracks product formation cycle by cycle.)

For the compound `COC(=O)C1=C(CN2CCN3C(=O)N(c4ccc(Oc5ccc(S(C)(=O)=O)cc5)cc4)C[C@@H]3C2)NC(c2nccs2)=N[C@H]1c1ccc(F)cc1Cl` [Example 106, (R)-methyl 4-(2-chloro-4-fluorophenyl)-6-(((S)-2-(4-(4-(methylsulfonyl)phenoxy)phenyl)-3-oxohexahydroimidazo[1,5-a]pyrazin-7(1H)-yl)methyl)-2-(thiazol-2-yl)-1,4-dihydropyrimidine-5-carboxylate], the CC50 (as a rule, the concentration giving 50% cytotoxicity) at 4 days in data set [1] was over 150 µM. In addition, the EC50 (usually the concentration giving half of the maximal effect) in the data set on HBV was found to be 6.2 nM.

With `COC(=O)C1=C(CN2CCN3C(=O)N(c4ccc(Oc5ccc(C(C)(C)O)cc5)cc4)C[C@@H]3C2)NC(c2nccs2)=N[C@H]1c1ccc(F)cc1Cl` [Example 100, (R)-methyl 4-(2-chloro-4-fluorophenyl)-6-(((S)-2-(4-(4-(2-hydroxyprop-2-yl)phenoxy)phenyl)-3-oxohexahydroimidazo[1,5-a]pyrazin-7(1H)-yl)methyl)-2-(thiazol-2-yl)-1,4-dihydropyrimidine-5-carboxylate], the CC50 at 4 days in data set [1] is over 150 µM. The EC50 with HBV was 16.8 nM.

As for `COC(=O)C1=C(CN2CCN3C(=O)N(CCC#Cc4ccc(C(=O)O)cc4)C[C@@H]3C2)NC(c2nccs2)=N[C@H]1c1ccc(F)cc1Cl` [Example 54, 4-(4-((S)-7-(((R)-6-(2-chloro-4-fluorophenyl)-5-(methoxycarbonyl)-2-(thiazol-2-yl)-3,6-dihydropyrimidin-4-yl)methyl)-3-oxohexahydroimidazo[1,5-a]pyrazin-2(3H)-yl)but-1-yn-1-yl)benzoic acid], in data set [1], the CC50 at 4 days is over 150 µM. For the same compound, the EC50 in the data set with HBV came to 61.3 nM.

For the compound `COC(=O)C1=C(CN2CCN3C(=O)N(c4nc(-c5cccc(C(=O)O)c5)cs4)C[C@@H]3C2)NC(c2nccs2)=N[C@H]1c1ccc(F)cc1Cl` [Example 139, 3-(2-((S)-7-(((R)-6-(2-chloro-4-fluorophenyl)-5-(methoxycarbonyl)-2-(thiazol-2-yl)-3,6-dihydropyrimidin-4-yl)methyl)-3-oxohexahydroimidazo[1,5-a]pyrazin-2(3H)-yl)thiazol-4-yl)benzoic acid], in data set [1], the CC50 at 4 days is over 150 µM. The EC50 with HBV turned out to be 10.7 nM.

On to `COC(=O)C1=C(CN2CCN3C(=O)N(c4ccc(-c5ccc(C(C)(C)C(=O)O)cc5)nc4)C[C@@H]3C2)NC(c2nccs2)=N[C@H]1c1ccc(F)cc1Cl` [Example 125, 2-(4-(5-((S)-7-(((R)-6-(2-chloro-4-fluorophenyl)-5-(methoxycarbonyl)-2-(thiazol-2-yl)-3,6-dihydropyrimidin-4-yl)methyl)-3-oxohexahydroimidazo[1,5-a]pyrazin-2(3H)-yl)pyridin-2-yl)phenyl)-2-methylpropanoic acid], for which the CC50 at 4 days in data set [1] was over 150 µM. The EC50 with HBV stood at 21 nM.

For the compound `COC(=O)C1=C(CN2CCN3C(=O)N(CC#Cc4c(C)cc(C#N)cc4C)C[C@@H]3C2)NC(c2nccs2)=N[C@H]1c1ccc(F)cc1Cl` [Example 48, (R)-methyl 4-(2-chloro-4-fluorophenyl)-6-(((S)-2-(3-(4-cyano-2,6-dimethylphenyl)-2-propynyl)-3-oxohexahydroimidazo[1,5-a]pyrazin-7(1H)-yl)methyl)-2-me (thiazol-2-yl)-1,4-dihydropyrimidine-5-carboxylate], the CC50 at 4 days in data set [1] was over 150 µM. For the same compound, the EC50 in the data set on HBV came to 6.3 nM.

In the case of `COC(=O)C1=C(CN2CCN3C(=O)N(c4ccc(Oc5ccc(C(=O)N6CCO[C@H](CCC(=O)O)C6)cc5)cc4)C[C@@H]3C2)NC(c2nccs2)=N[C@H]1c1ccc(F)cc1Cl` [Example 74, 3-((R)-4-(4-(4-(((S)-7-((R)-6-(2-chloro-4-fluorophenyl)-5-(methoxycarbonyl)-2-(thiazol-2-yl)-3,6-dihydropyrimidin-4-yl)methyl)-3-oxohexahydroimidazo[1,5-a]pyrazin-2(3H)-yl)phenoxy)benzoyl)morpholin-2-yl)propanoic acid], the 50% cytotoxic concentration (CC50) at 4 days in data set [1] is over 150 µM. The EC50 in the data set on HBV worked out at 30.7 nM.

With `COC(=O)C1=C(CN2CCN3C(=O)N(c4ccc(-c5ccc(CCC(=O)O)cc5)cc4)C[C@@H]3C2)NC(c2nccs2)=N[C@H]1c1ccc(F)cc1Cl` [Example 126, 3-(4′-((S)-7-(((R)-6-(2-chloro-4-fluorophenyl)-5-(methoxycarbonyl)-2-(thiazol-2-yl)-3,6-dihydropyrimidin-4-yl)methyl)-3-oxohexahydroimidazo[1,5-a]pyrazin-2(3H)-yl)-[1,1′-biphenyl]-4-yl)propanoic acid], in data set [1], the CC50 at 4 days is over 150 µM. Further, the EC50 in the data set with HBV was 6.7 nM.

Take `COC(=O)C1=C(CN2CCN3C(=O)N(c4ccc(-c5nc(C6CC6)c[nH]5)cc4)C[C@@H]3C2)NC(c2nccs2)=N[C@H]1c1ccc(F)cc1Cl` [Example 111, (R)-methyl 4-(2-chloro-4-fluorophenyl)-6-(((S)-2-(4-(4-cyclopropyl-1H-imidazol-2-yl)phenyl)-3-oxohexahydroimidazo[1,5-a]pyrazin-7(1H)-yl)methyl)-2-(thiazol-2-yl)-1,4-dihydropyrimidine-5-carboxylate]: the CC50 at 4 days in data set [1] is over 150 µM. The EC50 in the data set on HBV worked out at 7.5 nM.

Regarding `COCC(C)(C)NC(=O)c1ccc(Oc2ccc(N3C[C@@H]4CN(CC5=C(C(=O)OC)[C@H](c6ccc(F)cc6Cl)N=C(c6nccs6)N5)CCN4C3=O)cc2)cc1` [Example 70, (R)-methyl 4-(2-chloro-4-fluorophenyl)-6-(((S)-2-(4-(4-((1-methoxy-2-methylprop-2-yl)carbamoyl)phenoxy)phenyl)-3-oxohexahydroimidazo[1,5-a]pyrazin-7(1H)-yl)methyl)-2-(thiazol-2-yl)-1,4-dihydropyrimidine-5-carboxylate], the CC50 at 4 days in data set [1] is over 150 µM. Further, the EC50 with HBV is 15.9 nM.

As for `COC(=O)C1=C(CN2CCN3C(=O)N(c4ccc(-c5ccc(C(=O)O)cc5F)c(F)c4)C[C@@H]3C2)NC(c2nccs2)=N[C@H]1c1ccc(F)cc1Cl` [Example 33, 4′-((S)-7-(((R)-6-(2-chloro-4-fluorophenyl)-5-(methoxycarbonyl)-2-(thiazol-2-yl)-3,6-dihydropyrimidin-4-yl)methyl)-3-oxohexahydroimidazo[1,5-a]pyrazin-2(3H)-yl)-2,2′-difluoro-[1,1′-diphenyl]-4-carboxylic acid], in data set [1], the CC50 at 4 days was over 150 µM. Also, the EC50 with HBV was 7 nM.

Regarding `COC(=O)C1=C(CN2CCN3C(=O)N(c4ccc(-c5ccc(C(=O)O)cc5)c(F)c4)C[C@@H]3C2)NC(c2nccs2)=N[C@H]1c1ccc(F)cc1Cl` [Example 35, 4′-((S)-7-(((R)-6-(2-chloro-4-fluorophenyl)-5-(methoxycarbonyl)-2-(thiazol-2-yl)-3,6-dihydropyrimidin-4-yl)methyl)-3-oxohexahydroimidazo[1,5-a]pyrazin-2(3H)-yl)-2′-fluoro-[1,1′-diphenyl]-4-carboxylic acid], the CC50 at 4 days in data set [1] was over 150 µM. Moreover, the EC50 in the data set with HBV amounted to 7 nM.

Consider `COC(=O)C1=C(CN2CCN3C(=O)N(c4cc(F)cc(Oc5ccc(C(=O)O)cc5F)c4)C[C@@H]3C2)NC(c2nccs2)=N[C@H]1c1ccccc1Cl` [Example 93, 4-(3-((S)-7-(((R)-6-(2-chlorophenyl)-5-(methoxycarbonyl)-2-(thiazol-2-yl)-3,6-dihydropyrimidin-4-yl)methyl)-3-oxohexahydroimidazo[1,5-a]pyrazin-2(3H)-yl)-5-fluorophenoxy)-3-fluorobenzoic acid], for which the CC50 at 4 days in data set [1] was over 150 µM. The EC50 with HBV came out at 21.5 nM.

With `COC(=O)C1=C(CN2CCN3C(=O)N(c4ccc(Oc5ccc(C(=O)NC(C)CO)cc5)cc4)C[C@@H]3C2)NC(c2nccs2)=N[C@H]1c1ccc(F)cc1Cl` (stereo partly drawn) [Example 72, (4R)-methyl 4-(2-chloro-4-fluorophenyl)-6-(((8aS)-2-(4-(4-((1-hydroxyprop-2-yl)carbamoyl)phenoxy)phenyl)-3-oxohexahydroimidazo[1,5-a]pyrazin-7(1H)-yl)methyl)-2-(thiazol-2-yl)-1,4-dihydropyrimidine-5-carboxylate], the CC50 at 4 days in data set [1] was over 150 µM. In the data set on HBV, the EC50 amounted to 21.2 nM.

Take `COC(=O)C1=C(CN2CCN3C(=O)N(CC#Cc4ccc(C#N)cc4)C[C@@H]3C2)NC(c2nccs2)=N[C@H]1c1ccc(F)cc1Cl` [Example 44, (R)-methyl 4-(2-chloro-4-fluorophenyl)-6-(((S)-2-(3-(4-cyanophenyl)prop-2-yn-1-yl)-3-oxohexahydroimidazo[1,5-a]pyrazin-7(1H)-yl)methyl)-2-(thiazol-2-yl)-1,4-dihydropyrimidine-5-carboxylate]: the CC50 at 4 days in data set [1] is over 150 µM. Further, the EC50 in the data set on HBV is 3.6 nM.

With `COC(=O)C1=C(CN2CCN3C(=O)N(c4ccc(-c5ccc(C(C)(C)C(=O)O)cc5)cn4)C[C@@H]3C2)NC(c2nccs2)=N[C@H]1c1ccc(F)cc1Cl` [Example 19, 2-(4-(6-((S)-7-(((R)-6-(2-chloro-4-fluorophenyl)-5-(methoxycarbonyl)-2-(thiazol-2-yl)-3,6-dihydropyrimidin-4-yl)methyl)-3-oxohexahydroimidazo[1,5-a]pyrazin-2(3H)-yl)pyridin-3-yl)phenyl)-2-methylpropionic acid], the CC50 at 4 days in data set [1] was over 150 µM. Moreover, the EC50 in the data set on HBV amounted to 14 nM.

For the compound `COC(=O)C1=C(CN2CCN3C(=O)N(c4nc(-c5ccc(CC(C)(C)C(=O)O)cc5)cs4)C[C@@H]3C2)NC(c2nccs2)=N[C@H]1c1ccc(F)cc1Cl` [Example 36, 3-(4-(2-((S)-7-(((R)-6-(2-chloro-4-fluorophenyl)-5-(methoxycarbonyl)-2-(thiazol-2-yl)-3,6-dihydropyrimidin-4-yl)methyl)-3-oxohexahydroimidazo[1,5-a]pyrazin-2(3H)-yl)thiazol-4-yl)phenyl)-2,2-dimethylprop ionic acid], in data set [1], the CC50 at 4 days was over 150 µM. Also, the EC50 in the data set with HBV stood at 22 nM.
